Values of other authors as cited in US20010012851A1, “NITRIC OXIDE RELEASING OXINDOLE PRODRUGS FOR ANAGESIC, ANTI-INFLAMMATORY AND DISEASE-MODIFYING USE” (priority 1999, published 2001).

What was measured:
[1] = animal models of acute and chronic inflammation; versus parent NSAID
[2] = acute and chronic administration; versus parent NSAID
[3] = rat; for healing of experimental gastric ulcers (healing rate): daily treatment, Elliott et al. 1995
[4] = rat

Row | SMILES | anti-inflammatory activity [1] | gastric injury [2] | healing of experimental gastric ulcers (healing rate) [3] | mitochondrial damage ([4]; in vivo) | macroscopic damage in the small intestine ([4]; versus flurbiprofen) | healing of experimental gastric ulcers ([3]; earlier knowledge on the NO donor)
1 | O=C(Cc1ccccc1Nc1c(Cl)cccc1Cl)OCCCCO[N+](=O)[O-] [diclofenac nitroxybutylester, diclofenac-4-nitroxybutylester] | comparable to that of their parent NSAIDs | markedly less gastric injury | accelerated |  |  | 
2 | O=C(O)Cc1ccccc1Nc1c(Cl)cccc1Cl [diclofenac] |  |  | no effect |  |  | 
3 | CC(C(=O)OCCCCO[N+](=O)[O-])c1ccc(-c2ccccc2)c(F)c1 (stereo not shown) [flurbiprofen nitroxybutylester] | comparable to that of their parent NSAIDs | markedly less gastric injury |  | associated with mitochondrial damage in vivo | significantly less macroscopic damage | 
4 | O=[N+]([O-])OCC(CO[N+](=O)[O-])O[N+](=O)[O-] [glyceryl trinitrate] |  |  | accelerated |  |  | significantly accelerated
5 | CC(C(=O)OCCCCO[N+](=O)[O-])c1cccc(C(=O)c2ccccc2)c1 (stereo not shown) [ketoprofen nitroxybutylester] | comparable to that of their parent NSAIDs | markedly less gastric injury |  |  |  | 
6 | COc1ccc2cc(CCC(C)=O)ccc2c1 [nabumetone] |  |  | no effect |  |  | 
